Source: US11827582B2, “Substituted amines as disrupters of ABETA42 oligomer formation” (ACELOT, INC., priority 2017, dated 2023)
Like-named read-outs stand apart in the source and are kept apart here.

Legend:
[1] = Caco-2 A-B and B-A permeability test; type: in vitro ADME; conditions: human
Experimental: Subsequently, Caco-2 A-B and B-A permeability tests (pH 7.4) were performed on the […]-107 molecules in order to assess their human intestinal permeability and drug efflux. This assay measures the […] rate of transport of a compound across the Caco-2 cell line that is derived from a human colon carcinoma. The cells have characteristics that resemble intestinal epithelial cells such as the formation of a polarized monolayer, well-defined brush border on the apical surface and intercellular junctions.

[2] = test system: Aβ oligomer induced changes in membrane trafficking in 21 DIV primary rodent neuronal cultures; test: Membrane trafficking assay (MTT) in primary neuronal cultures treated with oligomeric Aβ; type: cell-based; conditions: read-out: MTT ASSAY EC50
Experimental: Seven drug candidates (A0101-A0107) (FIG. 2) were tested in a primary cell biological screening assay capable of measuring Aβ oligomer induced changes in membrane trafficking in 21 DIV primary rodent neuronal cultures (see Izzo et al., PLoS ONE 9(11):e111899, 2014). Briefly, cultures were treated with either oligomeric Aβ or oligomeric Aβ plus a candidate compound for 24 hours. Non-Aβ treated cells served as a negative control. Next, a non-membrane permeable dye (MTT) was added to the dishes for 1 hour, during which time the dye can be internalized by endocytosis. At the end of the hour, the dye containing media was removed, the dishes were rinsed extensively with isotonic buffer, and finally, the washed cells were extracted with a Triton X-100 buffer to solubilize membranes and release the dye, which is quantitated.

[3] = target: Human Ether-á-go-go-Related-Gene channel (hERG) (Homo sapiens, UniProt Q12809); test: hERG cellular patch-clamp assay (cardiac toxicity)
Text: Contract laboratories provided screening of hERG ion channel cell lines as an indicator of cardiac safety. […] Cellular “patch-clamp” assays provide the data required by ICH guidelines.

wild type Aβ42 = wild type Aβ42 (Homo sapiens, UniProt P05067); test: IMS-MS assay for Aβ42 oligomer formation (arrival time distributions); conditions: for Aβ42 wt dodecamer formation (overall conclusion): 10 μM in 10 mM ammonium acetate
Experimental: A physiologically relevant solution of Aβ42 and a drug candidate was incubated for varying periods of time and then loaded into a special spray capillary and the solution nano-electrosprayed, captured by an ion funnel, transported, dehydrated and continuously fed into a quadrapole mass analyser, and detected. This process yielded a mass spectrum. In order to obtain either structural or oligomeric information, the ions were next stored at the end of the funnel and then pulse injected at low energy into a drift cell filled with helium gas and subjected to a low electric field to transport the ions through the cell. The quadrapole is set to pass a particular mass to charge ratio (m=z), and an arrival time distribution (ATD) of the ions at this m=z is obtained at the detector (see, e.g., Bernstein et al., Journal of the American Chemical Society, 127(7):2075-2084, 2005). All molecules were at a concentration of 10 μM in 10 mM ammonium acetate.
By collecting Arrival Time Distributions (ATDs) of each of these charge states, ions of the same mass-to-charge (m/z) ratio were separated by their size and shape.
Using kinetic theory and parameters of the experiment, arrival times are related to an ion's mobility in the drift cell, which is inversely proportional to the ion's collision cross section. Oligomer formation is shown for dimer (n=2) up to dodecamer (n=12) for the z/n=−5/2 charge state.
For example, the peak in z/n=−3 ATD with a collision cross section of 698 Å^2 corresponds to a less compact solution-phase monomer structure. The peak of 642 Å^2 corresponds to a more compact gas phase structure.

[4] = Caco-2, apical to basolateral, pH 7.4, read-out: A-B perm
[5] = Caco-2, basolateral to apical, pH 7.4, read-out: B-A perm

Sequence of wild type Aβ42 (P05067 672-713 limits assumed): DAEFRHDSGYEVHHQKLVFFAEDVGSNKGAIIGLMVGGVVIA
Sequence of Human Ether-á-go-go-Related-Gene channel (hERG) (Q12809 whole entry): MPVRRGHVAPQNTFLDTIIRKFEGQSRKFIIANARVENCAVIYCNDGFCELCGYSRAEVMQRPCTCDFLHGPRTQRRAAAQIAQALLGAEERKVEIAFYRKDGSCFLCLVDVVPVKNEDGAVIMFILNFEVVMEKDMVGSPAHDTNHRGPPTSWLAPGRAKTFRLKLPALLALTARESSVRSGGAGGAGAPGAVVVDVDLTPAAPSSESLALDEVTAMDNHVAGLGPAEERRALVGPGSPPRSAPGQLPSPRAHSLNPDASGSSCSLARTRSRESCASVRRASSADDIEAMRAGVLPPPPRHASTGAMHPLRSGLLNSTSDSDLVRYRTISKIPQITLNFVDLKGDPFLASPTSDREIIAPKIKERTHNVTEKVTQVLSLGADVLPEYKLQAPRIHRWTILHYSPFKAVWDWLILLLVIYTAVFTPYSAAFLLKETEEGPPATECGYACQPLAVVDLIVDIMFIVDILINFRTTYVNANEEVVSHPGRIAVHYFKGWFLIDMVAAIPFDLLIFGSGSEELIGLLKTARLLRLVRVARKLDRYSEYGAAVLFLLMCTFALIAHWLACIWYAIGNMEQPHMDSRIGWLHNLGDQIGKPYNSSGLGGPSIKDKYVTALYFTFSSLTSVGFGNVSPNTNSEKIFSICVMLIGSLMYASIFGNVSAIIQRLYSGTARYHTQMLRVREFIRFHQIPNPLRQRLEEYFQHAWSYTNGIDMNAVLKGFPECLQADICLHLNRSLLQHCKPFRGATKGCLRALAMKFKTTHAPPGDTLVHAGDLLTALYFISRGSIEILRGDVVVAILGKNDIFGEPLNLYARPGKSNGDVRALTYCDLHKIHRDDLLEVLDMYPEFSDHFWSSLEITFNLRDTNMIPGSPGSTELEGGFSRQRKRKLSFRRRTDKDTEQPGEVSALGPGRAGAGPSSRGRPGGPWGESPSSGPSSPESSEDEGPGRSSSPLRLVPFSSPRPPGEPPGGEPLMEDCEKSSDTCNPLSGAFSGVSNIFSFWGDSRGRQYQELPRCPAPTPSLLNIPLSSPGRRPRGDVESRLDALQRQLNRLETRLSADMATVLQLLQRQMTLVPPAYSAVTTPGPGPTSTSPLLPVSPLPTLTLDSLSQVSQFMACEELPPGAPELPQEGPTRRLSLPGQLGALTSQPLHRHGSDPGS

Row | Papp A→B [1, 4] | Papp B→A [1, 5] | Structure (SMILES) | EC50 [2] | IC50 [3] | further results
1 | 30 ×10⁻⁶ cm/s | 4.5 ×10⁻⁶ cm/s | CN(C)Cc1ccc(CNCc2ccc3c(c2)OCCO3)cc1 [AC0102, (2,3-dihydro-1,4-benzodioxin-6-ylmethyl)({4[(dimethylamino)methyl]-phenyl}methyl)amine] | 3.5 µM | > 10 µM | 
2 | 61.6 ×10⁻⁶ cm/s | 39.7 ×10⁻⁶ cm/s | CN(C)C(=O)C(c1ccccc1)N1CCN(c2ccc(O)cc2)CC1 (centres unmarked) [AC0103, 2-[4-(4-hydroxyphenyl)piperazin-1-yl]-N,N-dimethyl-2 phenylacetamide] | 1.3 µM | > 10 µM | 
3 | 59.4 ×10⁻⁶ cm/s | 13.9 ×10⁻⁶ cm/s | N#Cc1cccc(CNCc2ccc(CN3CCOCC3)cc2)c1 [AC0104, 3-[({[4-(morpholin-4 ylmethyl)phenyl]methyl}amino)methyl]benzonitrile] | 0.7 µM | > 10 µM | 
4 | 18.4 ×10⁻⁶ cm/s | 6.5 ×10⁻⁶ cm/s | N#Cc1ccc(CNCc2cccc(CN3CCCC3)c2)cc1 [AC0107, 4-[({[3-(pyrrolidin-1-ylmethyl)phenyl]methyl}amino)methyl]benzonitrile] | 0.45 µM | > 10 µM | relative amounts of earlier arriving structures in z/n=−4 ATD (wild type Aβ42; 1:10 Aβ42 wt to compound, day 2): reduces; wild type Aβ42 dodecamer formation (wild type Aβ42; 1:10 Aβ42 wt to compound, day one): inhibited; Aβ42 hexamer growth (wild type Aβ42; IMS-MS): slowing hexamer growth; Aβ42 wt dodecamer formation (overall conclusion) (wild type Aβ42; IMS-MS): inhibitor of Aβ42 wt dodecamer formation; dodecamer formation in z/n=−5/2 ATD (wild type Aβ42; after 29 hours): still inhibited; earlier arriving structures in z/n=−3 ATD (wild type Aβ42; between 26 and 30 hours incubation time): disappear

Further lines, the compound ahead of its results:

Row | Structure (SMILES) | Papp A→B [1, 4] | Papp B→A [1, 5] | EC50 [2] | IC50 [3] | further results
5 | CC(=O)Nc1ccc(CNCCc2cccc(Cl)c2)cc1 [AC0101, N-[4-({[2-(3-chlorophenyl)ethyl]amino}methyl)phenyl]acetamide] | 101 ×10⁻⁶ cm/s | 41.6 ×10⁻⁶ cm/s | 3.9 µM | 8 µM | hERG inhibition (in words) ([3]; summary of Table 2, 4th column): moderate potency
6 | Cc1cc(CN2CC=C(c3ccc(O)cc3)CC2)no1 [AC0106, 4-{1-[(5-methyl-1,2-oxazol-3-yl)methyl]-1,2,3,6tetrahydropyridin-4-yl}phenol] | 74.4 ×10⁻⁶ cm/s | 42.3 ×10⁻⁶ cm/s | 1 µM | > 10 µM | 
7 | C[C@@H](NCCCc1cccc(C(F)(F)F)c1)c1cccc2ccccc12 [Cinacalcet, reference compound] |  |  |  |  | Aβ42 wt dodecamer formation (overall conclusion) (wild type Aβ42; IMS-MS): did not inhibit
8 | COc1cc2c(c(OC)c1OC)-c1ccc(OC)c(=O)cc1[C@@H](NC(C)=O)CC2 [colchicine, reference compound] | 0.1 ×10⁻⁶ cm/s | 13.9 ×10⁻⁶ cm/s |  |  | 
9 | CC(C)NCC(O)COc1cccc2ccccc12 (centres unmarked) [propranolol, reference compound] | 60.6 ×10⁻⁶ cm/s | 24.2 ×10⁻⁶ cm/s |  |  | 
10 | CNC(=C[N+](=O)[O-])NCCSCc1ccc(CN(C)C)o1 [ranitidine, reference compound] |  |  |  |  | Papp A→B ([1]; Caco-2, pH 7.4): 0.7 ×10⁻⁶ cm/s; Papp B→A ([1]; Caco-2, pH 7.4): 3.5 ×10⁻⁶ cm/s
